Measurements reported in publication PMC9272924, “Design and synthesis of thiazolidine-2,4-diones hybrids with 1,2-dihydroquinolones and 2-oxindoles as potential VEGFR-2 inhibitors: in-vitro anticancer evaluation and in-silico studies” (Journal of Enzyme Inhibition and Medicinal Chemistry, 2022).
Several values for one entry are separate records, joined by “and”; a condition that tells them apart may be missing. Equal entries are not always repeated. Entries after “also recorded” stand apart in the source; their conditions may differ.

What was measured:
[1] = target: T1, VEGFR-2 (Homo sapiens, UniProt P35968); experiment: In vitro VEGFR-2 kinase assay (VEGFR-2 ELISA kit); type: biochemical; conditions: for HillSlope, best-fit value, VEGFR-2 inhibition / LogIC50, best-fit value, VEGFR-2 inhibition: raw data curve fit, % remaining activity
T1 construct: purchased
Excerpt: To explore the molecular mechanism of the tested compounds as anticancer agents, the compounds were further evaluated to assess their enzymatic inhibitory potential against VEGFR-2.
VEGFR-2 inhibitory activity of the experimented compounds was preceded using a VEGFR-2 ELISA kit as reported and described in Supplementary data.

[2] = test system: HepG2; experiment: In vitro anti-proliferative activity (MTT assay), HepG2; type: cell-based; conditions: for IC50: Homo sapiens, HepG2, MTT assay, mean of three replicates; for Selectivity index (SI) (HepG2): SI = Cytotoxicity against Vero cells / Cytotoxicity against HepG2 cell line
Protocol: (§1) Target quinolines 8a–c, indolines 12a and 12b were assessed for their potential anti-proliferative effects against a panel of three different cancer cell lines; colon (Caco-2), hepatocellular (HepG2), and breast (MDA-MB-231) cancer cell lines using standard MTT assay protocol. The obtained results confirmed the anti-cancer effects of the tested compounds against the three types of cancerous cell lines, expressed as the median growth inhibitory concentration (IC50), and were presented in Table 1.
(§2) Anti-proliferative activities of the experimented compounds were assessed against Caco-2, HepG-2, and MDA-MB-231 cell lines using MTT assay protocol[54]^,[74] as described in Supplementary data. […]
(§3) a- Mammalian cell lines culture
(§4) WISH, CaCo-2, and A549 cell lines were cultured on DMEM media, meanwhile MDA-MB-231 and hepG-2 cell line were cultured on RBMI media. The cultured media were supplemented with 200 mM L-glutamine, 10.0% fetal bovine serum (Lonza), and 1.0% penicillin/streptomycin. Cells were seeded into 25.0 cm tissue culture flasks and incubated at 37◦C in a 5.0% CO2 incubator for 24 h or till confluency.
(§5) The safety profiles of the tested compounds were checked on one non-cancerous cell line (Vero) to […]
(§6) of 100.0 µl of 6×10^4 cell/ml cells was seeded into each well of a 96-well plate and then the plates were incubated at 37 °C in a humidified 5.0% CO2 incubator for 24 h. At the end of incubation period, the exhausted medium was replaced with 100.0 µl of different concentrations of the designated treatment (prepared in RPMI medium starting from 1.0 mM). The inoculated plates were incubated at the same growth conditions for another 24 h. At the end of incubation, cellular viability was assessed using MTS assay kit (Promega) according to the manual instruction. c- In-vitro anticancer activity
(§7) Anticancer activities of the tested compounds against CaCo-2, MDA-MB-231, and hepG-2 cell lines were quantified using MTS assay kit (Promega) as described by the Manufacturer. d- Selectivity index (SI)
(§8) The selectivity index values of the tested compounds on cancer cells were calculated as described by Koch et al., with slight modifications; SI=IC50nc/IC50cc, where IC50nc: the IC 50 value of the tested compound on normal cells and IC 50cc: IC50 of the te sted compound on cancer cell line . […]

[3] = test system: Caco-2; experiment: In vitro anti-proliferative activity (MTT assay), Caco-2; type: cell-based; conditions: Homo sapiens, Caco-2; MTT assay; mean of three replicates
Protocol: as §1, §2, §3, §4, §5, §6, §7, §8

[4] = as above; type: cell-based; conditions: African green monkey (Vero); human (Caco-2); SI = Cytotoxicity against Vero cells / Cytotoxicity against Caco-2 cell line; read-out: Selectivity index (SI) (Caco-2)
Protocol: as §1, §2, §3, §4, §5, §6, §7, §8

[5] = Safety assay: in-vitro viability on non-cancerous Vero cell line; type: cell-based; conditions: African green monkey, Vero cells (non-cancerous cell line), MTT assay, read-out: Cytotoxicity against Vero (IC50 µM)
Protocol: An in-vitro viability test was used to investigate the safety patterns of the tested compounds at different concentrations (1.0 mM/mL to 50 µM/mL). The Vero cell line was used as a non-cancerous cell line model to investigate the safety of the synthesised compounds. […] Such values were very high in comparison to the corresponding values on cancer cell lines, which reflect the high in vitro safety profile of the tested members towards non-cancerous cell lines (Table 2). […]
as §3, §4, §5
as §6, with “c- In-vitro anticancer activity” left out
d- Selectivity index (SI)
as §8

[6] = test system: MDA-MB-231; experiment: In vitro anti-proliferative activity (MTT assay), MDA-MB-231; type: cell-based; conditions: for IC50: Homo sapiens, MDA-MB-231, MTT assay, mean of three replicates; for Selectivity index (SI) (MDA-MB-231): SI = Cytotoxicity against Vero cells / Cytotoxicity against MDA-MB-231 cell line
Protocol: as §1, §2, §3, §4, §5, §6, §7, §8

[7] = test system: Survivin; experiment: Gene expression by RT-qPCR in Caco-2 cells, Survivin; type: cell-based; conditions: Caco-2 treated with 2 µM (IC50 value) of 12a, compared to control cells
Excerpt: (§9) These findings indicate the efficiency of compound 12a in the induction of apoptosis (Figure 4).
(§10) The molecular anticancer mode of action of 12a was investigated by screening their ability to control the gene expression levels of Bcl2, Bcl-xl, TGF and Survivin genes as reported[79] in Supplementary data. […]
(§11) f- Gene expression pattern alternation of cancer cell after 12a treatment The molecular anticancer mode of action of 12a was investigated by screening their ability to affect the gene expression levels of Bcl2, Bcl-xl, TGF and Survivin genes using specific forward and reverse primers and RTq-PCR technique (Table 1) in CaCo-2 cells (chosen as the most sensitive cancer cell line). After cellular treatment, CaCo-2 cell line was cultured into 12 well plates (6×10^3 cell/ml) for 24 h. with the sub- […]
(§12) After treatment, total RNA extraction was performed using RNA extraction kit (Qiagen, Germany). Then, 1 ug of the obtained RNA was used to synthesiz cDNA using cDNA synthesis kit (Promega Corp., Madison, WI) as recommended by the manufacturer. Simultaneously, GAPDH forward and reverse primers (Table 1) were used to amplify the house keeping gene as internal control for standardization of PCR products. The RTq-PCR was done using SYBR Green dye (QuantiTect SYBR Green PCR Kits) and Light Cycler fluorimeter (Bio-RAD S1000 Tm thermal cycler). […]

[8] = test system: Bcl-xl; experiment: Gene expression by RT-qPCR in Caco-2 cells, Bcl-xl; type: cell-based; conditions: Caco-2 treated with 2 µM (IC50 value) of 12a, compared to control cells
Excerpt: as §9, §10, §11, §12

[9] = test system: Caco-2 cells; experiment: Cell migration (in-vitro scratch / wound healing) assay; type: cell-based
Excerpt: The potential of compound 12a to inhibit the ability of Caco-2 cells to migrate and heal was investigated through the in-vitro scratch assay which is a low-cost easy and well-developed method. The basic concept of this method involves the generation of a scratch in a cancer cell line monolayer, recording the diameter at the beginning, and at regular intervals during cell migration to close that scratch. The obtained results of the treated cell line are then compared to the untreated cell line. Images of scratched areas from the time points; 0, 24 are illustrated in Figure 3.
Regarding the representative control, the scratch was completely closed within 24 h (Figure 3(C)). […] This significant morphological change could be linked to the incidence of apoptosis in the treated cancer cells.
Cell migration assay was fulfilled according to the reported protocol as described[78] in Supplementary data. […]
as §3
as §4, with “confluency. […]” for “confluency.”
e- Wound healing assay (Migration assay)
CaCo-2 cells were grown to 95.0% confluency in a complete DMEM medium and then the wounds were formed using a plastic tip. After washing with pre -warmed PBS, the cells were incubated in the specific medium or the 12a treatment. After incubation at 37°C and 5.0% CO 2 for 24h, the cells were washed with PBS and the wounds distance was determined as the scratch width of the treated and untreated groups using […]

[10] = test system: Bcl2; experiment: Gene expression by RT-qPCR in Caco-2 cells, Bcl2; type: cell-based; conditions: Caco-2 treated with 2 µM (IC50 value) of 12a, compared to control cells
Excerpt: as §9, §10, §11, §12

[11] = test system: TGF; experiment: Gene expression by RT-qPCR in Caco-2 cells, TGF; type: cell-based; conditions: Caco-2 treated with 2 µM (IC50 value) of 12a, compared to control cells
Excerpt: as §9, §10, §11, §12

T1 sequence (P35968 20-1356): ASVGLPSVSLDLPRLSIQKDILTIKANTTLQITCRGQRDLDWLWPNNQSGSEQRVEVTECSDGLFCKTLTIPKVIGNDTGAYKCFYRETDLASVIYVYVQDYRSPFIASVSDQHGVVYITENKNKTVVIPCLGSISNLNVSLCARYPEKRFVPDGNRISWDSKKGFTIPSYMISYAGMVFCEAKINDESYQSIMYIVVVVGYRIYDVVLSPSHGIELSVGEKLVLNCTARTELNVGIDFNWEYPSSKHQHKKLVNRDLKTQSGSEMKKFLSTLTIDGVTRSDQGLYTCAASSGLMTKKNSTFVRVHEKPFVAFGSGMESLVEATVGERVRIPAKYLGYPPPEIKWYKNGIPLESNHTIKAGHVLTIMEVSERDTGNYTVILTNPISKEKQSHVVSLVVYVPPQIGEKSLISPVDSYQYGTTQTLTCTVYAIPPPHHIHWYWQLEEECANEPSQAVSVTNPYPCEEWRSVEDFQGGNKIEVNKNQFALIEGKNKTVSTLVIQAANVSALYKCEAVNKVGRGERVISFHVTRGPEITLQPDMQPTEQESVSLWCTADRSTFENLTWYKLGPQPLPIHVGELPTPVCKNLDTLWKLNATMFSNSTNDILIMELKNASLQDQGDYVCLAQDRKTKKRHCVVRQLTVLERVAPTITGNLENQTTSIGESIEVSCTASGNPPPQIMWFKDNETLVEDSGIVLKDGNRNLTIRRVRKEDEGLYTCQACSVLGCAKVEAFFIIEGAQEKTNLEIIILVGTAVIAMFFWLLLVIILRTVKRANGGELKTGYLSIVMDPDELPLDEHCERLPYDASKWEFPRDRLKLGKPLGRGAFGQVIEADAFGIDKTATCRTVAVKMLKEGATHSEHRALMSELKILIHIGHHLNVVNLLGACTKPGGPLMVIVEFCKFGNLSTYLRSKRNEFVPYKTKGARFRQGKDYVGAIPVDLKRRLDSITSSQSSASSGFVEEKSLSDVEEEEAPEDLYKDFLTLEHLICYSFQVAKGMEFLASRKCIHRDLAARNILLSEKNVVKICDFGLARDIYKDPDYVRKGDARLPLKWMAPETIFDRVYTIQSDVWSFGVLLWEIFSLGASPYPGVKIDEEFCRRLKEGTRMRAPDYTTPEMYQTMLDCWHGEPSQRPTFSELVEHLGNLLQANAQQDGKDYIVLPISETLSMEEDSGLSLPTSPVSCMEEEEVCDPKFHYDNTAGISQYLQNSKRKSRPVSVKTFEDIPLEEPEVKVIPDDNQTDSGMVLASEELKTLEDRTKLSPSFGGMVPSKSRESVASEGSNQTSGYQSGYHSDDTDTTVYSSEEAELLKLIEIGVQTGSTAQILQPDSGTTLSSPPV

| SMILES | IC50 [1] | HillSlope, best-fit value, VEGFR-2 inhibition [1] | LogIC50, best-fit value, VEGFR-2 inhibition [1] | IC50 [2] | Selectivity index (SI) (HepG2) [2] | IC50 [3] | selectivity ratio [4] | IC50 at 24 h [5] | IC50 [6] | Selectivity index (SI) (MDA-MB-231) [6] | Survivin gene expression [7] | Bcl-xl gene expression [8] | wound diameter of treated Caco-2 cells ([9]; 12a at sub IC50 value (1 µM), 24 h, 0.348 mm at 0 h, control scratch completely closed within 24 h) | scratch closure and cancer cell migration ([9]; Caco-2, 1 µM, 24 h) | Caco-2 cell shape ([9]; within 24 h) | Bcl2 gene expression [10] | TGF gene expression [11] |
| --- | --- | --- | --- | --- | --- | --- | --- | --- | --- | --- | --- | --- | --- | --- | --- | --- | --- |
| Cc1ccc(NC(=O)CN2C(=O)SC(=Cc3cc4ccccc4[nH]c3=O)C2=O)cc1 [Compound 8a, 2–(2,4-Dioxo-5-((2-oxo-1,2-dihydroquinolin-3-yl)methylene)thiazolidin-3-yl)-N-(p-tolyl)acetamide] | 0.0966 µM | -0.4030 | 1.985 Log (nM) | 86 ± 0.001 µM | 18.49 | 9 ± 0.001 µM | 177 | 1590 ± 0.068 µM | 150 ± 0.01 µM | 10.60 |  |  |  |  |  |  |  |
| O=C(CN1C(=O)SC(=Cc2cc3ccccc3[nH]c2=O)C1=O)NCCc1ccccc1 [Compound 8b, 2–(2,4-Dioxo-5-((2-oxo-1,2-dihydroquinolin-3-yl)methylene)thiazolidin-3-yl)-N-phenethylacetamide] | 0.0874 µM | -0.3502 | 1.941 Log (nM) | 60 ± 0.008 µM | 14.83 | 150 ± 0.013 µM | 5.93 | 890 ± 0.015 µM | 60 ± 0.003 µM | 14.83 |  |  |  |  |  |  |  |
| O=C(CN1C(=O)SC(=Cc2cc3ccccc3[nH]c2=O)C1=O)Nc1ccccc1[N+](=O)[O-] [Compound 8c, 2–(2,4-Dioxo-5-((2-oxo-1,2-dihydroquinolin-3-yl)methylene)thiazolidin-3-yl)-N-(2-nitrophenyl)acetamide] | 0.318 µM | -0.3460 | 2.502 Log (nM) | 156 ± 0.004 µM | 2.50 | 90 ± 0.004 µM | 4.33 | 390 ± 0.02 µM | 70 ± 0.009 µM | 5.57 |  |  |  |  |  |  |  |
| Cc1ccc(NC(=O)CN2C(=O)S/C(=C3\C(=O)Nc4ccccc43)C2=O)cc1 [Compound 12a, (Z)-2–(2,4-dioxo-5–(2-oxoindolin-3-ylidene)thiazolidin-3-yl)-N-(p-tolyl)acetamide] |  | -0.4584 | 2.066 Log (nM) | 10 ± 0.001 µM | 73.00 | 2 ± 0.005 µM | 365 | 730 ± 0.015 µM | 40 ± 0.002 µM | 18 and 18.25 | significant down-regulation; also recorded: downregulate | significant down-regulation; also recorded: downregulate | 0.335 mm | significantly inhibited the scratch closure and cancer cell migration; also recorded: significantly inhibited the ability of cancer cells to migrate and heal | changed the Caco-2 cell shape from an irregular into the normalised round form; also recorded: changed the cancer cell shape from irregular to a normalised round form | significant down-regulation; also recorded: downregulate | upregulation; also recorded: upregulate |
| O=C(CN1C(=O)S/C(=C2\C(=O)Nc3ccccc32)C1=O)Nc1ccccc1[N+](=O)[O-] [Compound 12b, (Z)-2–(2,4-dioxo-5–(2-oxoindolin-3-ylidene)thiazolidin-3-yl)-N-(2-nitrophenyl) acetamide] | 0.0841 µM | -0.2985 | 1.925 Log (nM) | 49 ± 0.008 µM | 9.80 | 120 ± 0.001 µM | 4 | 480 ± 40 µM | 37 ± 0.002 µM | 12.97 |  |  |  |  |  |  |  |
| COc1cccc2c1C(=O)c1c(O)c3c(c(O)c1C2=O)C[C@@](O)(C(=O)CO)C[C@@H]3O[C@H]1C[C@H](N)[C@H](O)[C@H](C)O1 [Doxorubicin, reference compound] |  |  |  | 1.15 ± 0.02 µM |  | 3.46 ± 0.003 µM |  |  | 0.98 ± 0.01 µM |  |  |  |  |  |  |  |  |
